Results from article PMC3378324 (Febs Letters, 2012).
Where no end group is shown, it is not given here.

What was measured:
Hck-SH3 [1] = details: ITC, ref [12]; cited from earlier work
Fyn(R96I)-SH3 = experiment: Yeast two-hybrid assay; format: cell-based, human; details: negative control for RT-loop selection
Fyn(WT)-SH3 = Fyn(WT)-SH3 (Homo sapiens, UniProt P06241); experiment: Yeast two-hybrid assay; format: cell-based; details: negative control for RT-loop selection
Hck-SH3 [2] = experiment: Yeast two-hybrid assay; format: cell-based, human; details: negative control for RT-loop selection

Fyn(WT)-SH3, sequence (P06241 82-143 limits assumed): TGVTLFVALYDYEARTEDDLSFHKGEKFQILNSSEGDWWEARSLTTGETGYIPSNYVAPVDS

Substance | binding characteristics toward Hck-SH3 compared with ALIXV+PRR (Hck-SH3 [1]) | yeast two-hybrid interaction strength (Fyn(R96I)-SH3) | yeast two-hybrid interaction strength (Fyn(WT)-SH3) | yeast two-hybrid interaction strength (Hck-SH3 [2])
PTPPTPAPRTMPPTKPQPPARPPP [ALIXPI] | did not fully reproduce the binding characteristics of ALIXV+PRR toward Hck-SH3 |  |  | 
SAM68: Src-associated in mitosis 68 kDa (SAM68) protein |  | interacted with comparable strength with every SH3 domain | interacted with comparable strength with every SH3 domain | interacted with comparable strength with every SH3 domain
